Reference: publication PMC12435366, “Maleic anhydride derived diphosphines: adaptable chelators for receptor-targeted ^99mTc, ^64Cu and ^188Re radiotracers” (Chemical Science, 2025)

System: PSMA-expressing DU145-PSMA+ prostate cancer cells
Test: In vitro uptake of 99mTc tracers in DU145-PSMA+ cells
Type: cell-based
Details: for uptake in DU145-PSMA+ cells (% added radioactivity): 50 kBq purified tracer, 5 × 10^5 cells seeded per well, 37 °C, 1 h incubation, mean ± SD, biological triplicate; for blocking of cell uptake by PSMA inhibitor PMPA: co-incubation with PMPA
Protocol: To compare the relative uptake and specificity of the new radiotracers for PSMA, [^99mTcO2(DP^Ph-PSMAt)2]^+, [^99mTcO2(DP^An-PSMAt)2]^+ and [^99mTcO2(DP^MEP-PSMAt)2]^+ (50 kBq) were purified from unreacted ^99mTc precursors and excess DP-PSMAt peptide, and each incubated with PSMA-expressing DU145-PSMA+ prostate cancer cells[33] or LNCaP prostate cancer cells (5 × 10^5 cells). After 1 h incubation, uptake of each radiotracer was quantified. […]
4.9 99mTc uptake in DU145, DU145-PSMA+ and LNCaP cells
The following experiment was performed in biological triplicate.
A panel of cell lines were selected that either expressed GCP(II)/PSMA (DU145-PSMA+ (genetically modified to express PSMA),12 and LNCaP (CRL‐1740)), or had low GCP(II)/PSMA expression (DU145 (HTB-81)). All cell lines were cultured in RPMI 1640 medium (R0883, Sigma) containing 10% foetal bovine serum, 2 mM L-glutamine, and 100 U mL−1 penicillin and 100 µg mL−1 streptomycin. Cells were maintained at 37 °C and 5% CO 2. Cells were seeded in 6-well plates at a density of 5 × 10^5 cells per well […]
in 2 mL complete media to achieve 70–80% confluency the following day. Prior to treating cells, cell medium (1 mL/well) was replaced. Solutions containing either [99mTcO2(DPPh-PSMAt)2]+, [99mTcO2(DPAn-PSMAt)2]+ or [99mTcO2(DPMEP-PSMAt)2]+ (50 kBq in 10 μL of PBS, >95% radiochemical purity) were added to each well, and the cells incubated at 37 °C for 1 h. Uptake studies were also performed after a 2 min incubation with the PSMA inhibitor 2 -(phosphonomethyl)pentane -1,5-dioic acid (PMPA; 30 µL of 750 µM PMPA solution/well). After 60 min incubation, the supernatant was removed, and the cells were washed with PBS solution (2 × 1 mL). The cells were lysed with ice cold radioimmunoprecipitation assay buffer (RIPA buffer, 500 μL; 150 mM sodium chloride, 0.1% w/w sodium dodecyl sulfate (SDS), 0.5% w/w sodium deoxycholate (NaDOC), 1% w/w Triton-X) and samples were collected for radioactivity counting. Results are depicted as means ± SD of independent biological experiments (performed on different days with different radiotracer preparations). […]
Biodistribution studies using 99mTc radiotracers were performed once a tumour had reached 150– 300 mm3 in volume (2–7 weeks after injection).
SCID/beige mice bearing DU145-PSMA+ prostate cancer tumour xenografts
SPECT/CT scanning and biodistribution studies: The 99mTc radiotracers (3.9–4.5 MBq, 3 mice per group, containing DPAn-PSMAt = 3.0 µg or DPMEP-PSMAt = 3.5 µg) were administered via tail vein injection under isoflurane anaesthesia. Following this, SPECT/CT scanning was carried out in one of two methods outlined below, to maintain 2 h biodistribution timepoints : i. The mouse was positioned on a single heated bed in a nanoScan SPECT/CT 80W scanner (Mediso Ltd., Budapest, Hungary) calibrated for 99mTc. A helical CT scan was acquired (50 kV X-ray source, 170 ms exposure time in 360 projections over 3 min). At 15 min post -injection, whole body SPECT scans were acquired (1 × 15 min, 3 × 30 min, conducted sequentially) with a frame time of 13 s and 26 s (using a 4-head scanner with 4 × 9 [1.4 mm] pinhole collimators

Row | Compound | uptake in DU145-PSMA+ cells (% added radioactivity) | mean difference in uptake compared with [^99mTcO2(DP^Ph-PSMAt)2]^+ (DU145-PSMA+ cells, 1 h) | blocking of cell uptake by PSMA inhibitor PMPA (DU145-PSMA+ cells, 1 h) | mean difference in uptake compared with [^99mTcO2(DP^MEP-PSMAt)2]^+ (DU145-PSMA+ cells, 1 h)
1 | COCCOc1ccc(P(/C(C(=O)O)=C(/C(=O)NCCOCCOCCOCCOCCC(=O)NCCCC[C@H](NC(=O)N[C@@H](CCC(=O)O)C(=O)O)C(=O)O)P(c2ccc(OCCOC)cc2)c2ccc(OCCOC)cc2)c2ccc(OCCOC)cc2)cc1 [[^99mTcO2(DP^MEP-PSMAt)2]^+, metal not drawn] | 2.7 ± 0.8 %AR | 12.7 %AR | blocked | –
2 | COc1ccc(P(/C(C(=O)O)=C(/C(=O)NCCOCCOCCOCCOCCC(=O)NCCCC[C@H](NC(=O)N[C@@H](CCC(=O)O)C(=O)O)C(=O)O)P(c2ccc(OC)cc2)c2ccc(OC)cc2)c2ccc(OC)cc2)cc1 [[^99mTcO2(DP^An-PSMAt)2]^+, metal not drawn] | 8.9 ± 2.1 %AR | 6.5 %AR | blocked | 6.2 %AR
